How the values were obtained:
Test in all cases: relative viability (nuclei count vs DMSO), 5 days (fraction); higher = more cells survive
[1] = compound: O=C(NC1CCNCC1)c1n[nH]cc1NC(=O)c1c(Cl)cccc1Cl [AT-7519] + O=C(CCCCCCC(=O)Nc1ccccc1)NO [Vorinostat] (partner 1 µM)
Procedure, shortened: (§1)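 Relative viability divides the nuclei count in treated wells by that in vehicle wells. Lung cancer cell lines were seeded in 1536-well plates, dosed by pin tool the next day, and fixed and stained after 5 days in one step with final 0.05% Triton X-100, 1% formaldehyde and 1 ug/ml Hoechst. Dosing was a single drug or a fixed anchor-drug dose plus five library-drug doses (not always all listed) in √10 steps, and values are medians of duplicate plates imaged at 4×.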

[2] = compound: C1=CC2=C(C=C(C(=C2N=C1)O)N=NC3=CC4=C(C=C3)C=C(C=C4)S(=O)(=O)O)S(=O)(=O)O + Nc1ncn([C@H]2C[C@H](O)[C@@H](CO)O2)c(=O)n1 [Decitabine] (partner 2 µM)
Procedure, shortened: as §1

[3] = compound: O=C(NC1CCNCC1)c1n[nH]cc1NC(=O)c1c(Cl)cccc1Cl [AT-7519] + C[C@]1(O)C[C@@H](c2nc(-c3ccc4ccc(-c5ccccc5)nc4c3)c3c(N)nccn32)C1 [Linsitinib] (partner 1 µM)
Procedure, shortened: as §1

[4] = compound: O=C(NC1CCNCC1)c1n[nH]cc1NC(=O)c1c(Cl)cccc1Cl [AT-7519] + O=C(c1cc(Cc2n[nH]c(=O)c3ccccc23)ccc1F)N1CCN(C(=O)C2CC2)CC1 [Olaparib] (partner 8 µM)
Procedure, shortened: as §1

**Q.** With UMC-11 as the cell line, how does the relative viability ([1]; first compound 0.01 µM) read?
**A.** 0.324

**Q.** And the relative viability ([1]; first compound 0.03162 µM)?
**A.** 0.379

**Q.** What about the relative viability ([1]; first compound 0.3162 µM) of the same cell line?
**A.** 0.272

**Q.** What about the relative viability ([1]; first compound 1 µM) of the same cell line?
**A.** 0.205

**Q.** What about the relative viability ([2]; first compound 0.08 µM) of the same cell line?
**A.** 0.506

**Q.** And the relative viability ([2]; first compound 0.253 µM)?
**A.** 0.644

**Q.** And the relative viability ([2]; first compound 0.8 µM)?
**A.** 0.734

**Q.** And the relative viability ([2]; first compound 2.53 µM)?
**A.** 0.679

**Q.** And the relative viability ([2]; first compound 8 µM)?
**A.** 0.638

**Q.** And the relative viability ([3]; first compound 0.01 µM)?
**A.** 1.17

**Q.** And the relative viability ([3]; first compound 0.03162 µM)?
**A.** 0.89

**Q.** What about the relative viability ([3]; first compound 0.3162 µM) of the same cell line?
**A.** 0.767

**Q.** And the relative viability ([3]; first compound 1 µM)?
**A.** 0.344

**Q.** What about the relative viability ([4]; first compound 0.01 µM) of the same cell line?
**A.** 0.333

**Q.** What about the relative viability ([4]; first compound 0.03162 µM) of the same cell line?
**A.** 0.368

**Q.** And the relative viability ([4]; first compound 0.3162 µM)?
**A.** 0.373

**Q.** And the relative viability ([4]; first compound 1 µM)?
**A.** 0.229
